Source: article PMC9571063 (Molecules, 2022)
Structures can show the parent of a compound that is named as a salt. Where two headings read alike, the source gives them in different places.

Legend:
[1] = target: T1, Hs_CDK9/CyclinT (Homo sapiens, UniProt P50750); assay: ADP-Glo kinase assay, primary screen; assay type: biochemical; settings: n=2, read-out: % of residual activity Hs_CDK9/CyclinT
T1 construct: host or cells: Sf9 insect cells (baculovirus)

[2] = target: T2, Hs_HASPIN (Homo sapiens, UniProt Q8TF76); assay: ADP-Glo kinase assay, primary screen; assay type: biochemical; settings: n=2, read-out: % of residual activity Hs_HASPIN
T2 construct: host or cells: bacteria
T2 sequence (Q8TF76 1-798): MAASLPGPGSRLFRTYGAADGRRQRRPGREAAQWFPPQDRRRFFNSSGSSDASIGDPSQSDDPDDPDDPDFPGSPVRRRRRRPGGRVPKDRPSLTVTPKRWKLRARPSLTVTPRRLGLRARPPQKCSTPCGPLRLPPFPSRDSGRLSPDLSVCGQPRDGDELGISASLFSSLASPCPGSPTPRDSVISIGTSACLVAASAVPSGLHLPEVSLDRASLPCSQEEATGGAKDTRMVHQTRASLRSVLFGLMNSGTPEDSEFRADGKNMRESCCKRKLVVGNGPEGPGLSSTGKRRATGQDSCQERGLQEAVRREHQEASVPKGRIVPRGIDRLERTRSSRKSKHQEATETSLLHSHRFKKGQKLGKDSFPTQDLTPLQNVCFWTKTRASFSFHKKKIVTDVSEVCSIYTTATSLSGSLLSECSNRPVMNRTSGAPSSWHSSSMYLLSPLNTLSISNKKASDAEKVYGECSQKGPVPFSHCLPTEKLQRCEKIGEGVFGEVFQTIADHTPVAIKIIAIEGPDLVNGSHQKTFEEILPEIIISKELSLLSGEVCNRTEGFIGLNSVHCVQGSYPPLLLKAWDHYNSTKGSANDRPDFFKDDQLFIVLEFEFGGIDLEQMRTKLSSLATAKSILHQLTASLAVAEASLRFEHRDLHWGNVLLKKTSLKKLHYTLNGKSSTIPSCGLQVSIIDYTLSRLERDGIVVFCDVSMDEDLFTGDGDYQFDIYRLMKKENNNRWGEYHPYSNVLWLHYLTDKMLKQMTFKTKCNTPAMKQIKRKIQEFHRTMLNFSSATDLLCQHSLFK

[3] = cytotoxic assay, nuclei count (Hoechst, HCS); assay type: cell-based; settings: human, Caco-2 cells (colorectal adenocarcinoma); 48 h treatment; read-out: Cytotoxic studies IC50 Caco2
[4] = target: T3, HsDYRK1A (Homo sapiens, UniProt Q13627); assay: ADP-Glo kinase assay; assay type: biochemical; settings: for remaining activity at 1 µM / remaining activity at 10 µM: n=2, read-out: % of residual activity Hs_DYRK1A
T3 construct: host or cells: Sf9 insect cells (baculovirus)

[5] = cytotoxic assay, nuclei count (Hoechst, HCS); assay type: cell-based; settings: human, MDA-MB-231 cells (breast carcinoma); 48 h treatment; read-out: Cytotoxic studies IC50 MDA-MB-231
[6] = target: T4, Hs_GSK3β (Homo sapiens, UniProt P49841); assay: ADP-Glo kinase assay, primary screen; assay type: biochemical; settings: n=2, read-out: % of residual activity Hs_GSK3β
T4 construct: host or cells: Sf9 insect cells (baculovirus)

[7] = target: T5, Hs_CK1ε (Homo sapiens, UniProt P49674); assay: ADP-Glo kinase assay, primary screen; assay type: biochemical; settings: n=2, read-out: % of residual activity Hs_CK1ε
T5 construct: host or cells: Sf9 insect cells (baculovirus)

[8] = target: T6, MmCLK1 (Mus musculus, UniProt P22518); assay: ADP-Glo kinase assay; assay type: biochemical; settings: for remaining activity at 1 µM / remaining activity at 10 µM: n=2, read-out: % of residual activity Mm_CLK1
T6 construct: host or cells: bacteria

[9] = cytotoxic assay, nuclei count (Hoechst, HCS); assay type: cell-based, human; settings: human, human skin fibroblasts (non-cancerous reference cells); 48 h treatment; some cells add low/moderate/high amplitude; read-out: Cytotoxic studies IC50 Fibroblasts
Experimental: (§1) To complete our study, we performed a cytotoxicity screening of the 15 molecules, investigating 7 representative cancer cell lines. The compound’s effect on cell viability was evaluated on Huh-7 (hepatocellular carcinoma), CaCo2, HCT-116 (colorectal adenocarcinoma), MCF7, MDA-MB231, MDA-MB468 (breast carcinoma), PC3 (prostate carcinoma) and NCI-H727 (lung carcinoid). Human skin fibroblasts were used as reference for non-cancerous cells. Roscovitine, Doxorubicin and Taxol were used as positive controls. The cells were treated for 48 h with 25 µM compounds and fixed in cooled 90% ethanol/5% acetic acid for 20 min. The nuclei were stained with Hoechst 33342 and counted using HCS technology.
(§2) HuH7, CaCo-2, MDA-MB-231, HCT116, PC3, MCF7 and NCI-H727 cancer cell lines were obtained from the ECACC collection (Porton Down, UK). Cells were grown at 37 °C, 5% CO2 in ECACC recommended media: DMEM for HuH7, MDA-MB-231 and fibroblast, EMEM for MCF7and CaCo-2, McCoy’s for HCT116 and RPMI for PC3 and NCI-H727. All culture media were supplemented with 10% of FBS, 1% of penicillin-streptomycin and 2 mM glutamine.
(§3) Chemicals were solubilized in DMSO at a concentration of 10 mM (stock solution) and diluted in culture medium to the desired final concentrations.
(§4) The cytotoxic assay of chemical was performed at 25 µM. Cells were plated in 96 wells plates (4000 cells/well). Twenty-four hours after seeding, cells were exposed to chemicals. After 48 h of treatment, cells were washed in PBS and fixed in cooled 90% ethanol/5% acetic acid for 20 min and the nuclei were stained with Hoechst 33342 (B2261 Sigma). Image acquisition and analysis were performed using a CellomicsArrayScan VTI/HCS Reader (ThermoScientific, Waltham, MA, USA). The survival percentages were calculated as the percentage of cell number after compound treatment over cell number after DMSO treatment.

[10] = target: T7, Rn_DYRK1A (Rattus norvegicus, UniProt Q63470); assay: ADP-Glo kinase assay, primary screen; assay type: biochemical; settings: n=2, read-out: % of residual activity Rn_DYRK1A
T7 construct: host or cells: bacteria

[11] = cytotoxic assay, nuclei count (Hoechst, HCS); assay type: cell-based; settings: human, HuH7 cells (hepatocellular carcinoma); 48 h treatment; read-out: Cytotoxic studies IC50 HuH7
[12] = target: T8, Hs_CDK5/p25 (Homo sapiens, UniProt Q00535); assay: ADP-Glo kinase assay, primary screen; assay type: biochemical; settings: n=2, read-out: % of residual activity Hs_CDK5/p25
T8 construct: host or cells: bacteria

[13] = target: T9, Hs_PIM1 (Homo sapiens, UniProt P11309); assay: ADP-Glo kinase assay, primary screen; assay type: biochemical; settings: n=2, read-out: % of residual activity Hs_PIM1
T9 construct: host or cells: Sf9 insect cells (baculovirus)

[14] = cytotoxic assay, nuclei count (Hoechst, HCS); assay type: cell-based; settings: human, MCF7 cells (breast carcinoma); 48 h treatment; read-out: Cytotoxic studies IC50 MCF7
Experimental: as §1, §2, §3, §4

[15] = cytotoxic assay, nuclei count (Hoechst, HCS); assay type: cell-based; settings: human, 48 h treatment
Experimental: as §1, §2, §3
as §4, with “The cytotoxic assay of chemical was performed at 25 µM.” left out

[16] = HCT116 cells (colorectal adenocarcinoma), read-out: Cytotoxic studies IC50 HCT116
[17] = MDA-MB-468 cells (breast carcinoma), read-out: Cytotoxic studies IC50 MDA-MB-468

T6 sequence (P22518 whole entry): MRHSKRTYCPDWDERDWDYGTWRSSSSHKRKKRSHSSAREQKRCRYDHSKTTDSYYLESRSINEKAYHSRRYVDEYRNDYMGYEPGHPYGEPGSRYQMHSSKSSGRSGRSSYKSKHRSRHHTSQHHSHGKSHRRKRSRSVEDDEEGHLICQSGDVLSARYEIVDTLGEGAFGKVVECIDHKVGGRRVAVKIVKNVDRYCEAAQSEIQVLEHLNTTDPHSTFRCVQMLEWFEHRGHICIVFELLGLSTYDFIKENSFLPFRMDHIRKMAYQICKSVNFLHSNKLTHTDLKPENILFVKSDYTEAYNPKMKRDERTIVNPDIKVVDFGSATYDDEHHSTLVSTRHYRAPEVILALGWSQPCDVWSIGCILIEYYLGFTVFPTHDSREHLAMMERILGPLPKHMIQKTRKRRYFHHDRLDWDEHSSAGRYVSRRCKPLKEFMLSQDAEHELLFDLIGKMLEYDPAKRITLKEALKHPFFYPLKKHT
T1 sequence (P50750 whole entry): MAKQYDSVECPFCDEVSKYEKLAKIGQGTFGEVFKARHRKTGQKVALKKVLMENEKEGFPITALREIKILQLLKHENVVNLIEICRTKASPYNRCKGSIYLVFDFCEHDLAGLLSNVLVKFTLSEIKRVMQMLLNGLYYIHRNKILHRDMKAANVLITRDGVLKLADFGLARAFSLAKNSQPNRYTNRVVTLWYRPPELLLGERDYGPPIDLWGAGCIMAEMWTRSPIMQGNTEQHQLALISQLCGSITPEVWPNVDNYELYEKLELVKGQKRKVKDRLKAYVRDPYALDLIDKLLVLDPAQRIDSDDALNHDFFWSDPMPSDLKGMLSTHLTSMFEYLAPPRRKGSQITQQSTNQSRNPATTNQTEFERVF
T1 sequence (O60563 whole entry partner): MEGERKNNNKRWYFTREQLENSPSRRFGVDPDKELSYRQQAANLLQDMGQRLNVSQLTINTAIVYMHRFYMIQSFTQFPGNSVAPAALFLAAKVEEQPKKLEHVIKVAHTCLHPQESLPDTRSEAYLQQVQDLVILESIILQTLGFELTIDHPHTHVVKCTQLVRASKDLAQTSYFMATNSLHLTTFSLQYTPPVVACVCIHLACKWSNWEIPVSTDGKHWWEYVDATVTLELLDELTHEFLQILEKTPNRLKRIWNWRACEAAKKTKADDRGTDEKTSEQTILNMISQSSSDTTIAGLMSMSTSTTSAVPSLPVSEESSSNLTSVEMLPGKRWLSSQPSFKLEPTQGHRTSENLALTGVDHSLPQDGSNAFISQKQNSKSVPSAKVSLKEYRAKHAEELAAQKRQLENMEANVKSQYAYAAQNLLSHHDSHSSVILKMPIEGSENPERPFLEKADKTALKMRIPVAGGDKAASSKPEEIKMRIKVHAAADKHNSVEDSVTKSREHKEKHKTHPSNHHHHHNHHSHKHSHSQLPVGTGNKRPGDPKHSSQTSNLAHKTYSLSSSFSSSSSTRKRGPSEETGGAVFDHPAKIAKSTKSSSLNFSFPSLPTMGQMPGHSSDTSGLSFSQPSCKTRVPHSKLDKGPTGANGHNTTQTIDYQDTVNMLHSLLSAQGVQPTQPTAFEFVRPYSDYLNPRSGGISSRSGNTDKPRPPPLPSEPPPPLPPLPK
T4 sequence (P49841 whole entry): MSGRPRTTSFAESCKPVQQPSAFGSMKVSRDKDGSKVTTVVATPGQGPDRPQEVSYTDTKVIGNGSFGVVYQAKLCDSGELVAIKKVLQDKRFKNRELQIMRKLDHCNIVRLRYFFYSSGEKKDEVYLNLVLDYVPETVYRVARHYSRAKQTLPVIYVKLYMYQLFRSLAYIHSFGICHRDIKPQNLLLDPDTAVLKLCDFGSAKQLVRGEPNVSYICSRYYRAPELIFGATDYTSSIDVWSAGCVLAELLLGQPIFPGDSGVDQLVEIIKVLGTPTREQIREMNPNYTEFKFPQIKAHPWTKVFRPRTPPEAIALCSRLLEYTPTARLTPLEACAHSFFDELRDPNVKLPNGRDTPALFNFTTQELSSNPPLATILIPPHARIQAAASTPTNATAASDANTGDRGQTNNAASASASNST
T5 sequence (P49674 whole entry): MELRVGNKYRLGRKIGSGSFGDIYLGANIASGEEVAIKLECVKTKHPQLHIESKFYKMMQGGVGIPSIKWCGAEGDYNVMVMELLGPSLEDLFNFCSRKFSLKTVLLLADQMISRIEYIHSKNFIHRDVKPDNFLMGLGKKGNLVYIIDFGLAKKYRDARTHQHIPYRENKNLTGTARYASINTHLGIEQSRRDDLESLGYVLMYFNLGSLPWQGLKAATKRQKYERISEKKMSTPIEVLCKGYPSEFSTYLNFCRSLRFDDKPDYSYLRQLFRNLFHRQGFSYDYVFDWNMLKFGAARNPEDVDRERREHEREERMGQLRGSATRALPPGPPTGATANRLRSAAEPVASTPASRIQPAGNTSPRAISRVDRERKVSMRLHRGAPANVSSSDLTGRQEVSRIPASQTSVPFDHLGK
T8 sequence (Q00535 whole entry): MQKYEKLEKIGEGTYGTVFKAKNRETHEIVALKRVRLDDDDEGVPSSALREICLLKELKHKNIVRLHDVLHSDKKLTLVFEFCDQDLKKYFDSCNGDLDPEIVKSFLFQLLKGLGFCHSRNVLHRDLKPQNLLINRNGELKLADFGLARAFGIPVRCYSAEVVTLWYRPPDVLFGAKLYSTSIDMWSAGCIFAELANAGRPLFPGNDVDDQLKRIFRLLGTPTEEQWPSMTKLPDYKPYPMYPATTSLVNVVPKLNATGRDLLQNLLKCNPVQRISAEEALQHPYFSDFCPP
T8 sequence (Q15078 99-307 partner limits assumed): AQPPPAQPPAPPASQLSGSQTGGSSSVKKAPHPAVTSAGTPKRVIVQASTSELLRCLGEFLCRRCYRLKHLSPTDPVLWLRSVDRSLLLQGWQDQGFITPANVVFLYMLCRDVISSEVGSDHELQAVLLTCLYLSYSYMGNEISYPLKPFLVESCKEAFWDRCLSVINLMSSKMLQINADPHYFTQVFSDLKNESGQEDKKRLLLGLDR
T9 sequence (P11309 whole entry): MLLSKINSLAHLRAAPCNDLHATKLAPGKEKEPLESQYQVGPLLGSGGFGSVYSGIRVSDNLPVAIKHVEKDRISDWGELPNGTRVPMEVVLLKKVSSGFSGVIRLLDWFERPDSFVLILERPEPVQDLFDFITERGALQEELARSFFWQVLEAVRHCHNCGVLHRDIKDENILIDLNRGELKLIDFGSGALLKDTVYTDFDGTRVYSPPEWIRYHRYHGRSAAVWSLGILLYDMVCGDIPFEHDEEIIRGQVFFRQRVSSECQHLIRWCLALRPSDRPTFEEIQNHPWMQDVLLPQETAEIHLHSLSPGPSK

SMILES	remaining activity at 1 µM [1]	remaining activity at 10 µM [1]	remaining activity at 1 µM [2]	remaining activity at 10 µM [2]	IC50 at 48 h [3]	remaining activity at 1 µM [4]	remaining activity at 10 µM [4]	IC50 at 48 h [5]	remaining activity at 1 µM [6]	remaining activity at 10 µM [6]	remaining activity at 1 µM [7]	remaining activity at 10 µM [7]	remaining activity at 1 µM [8]	remaining activity at 10 µM [8]	IC50 at 48 h [9]	remaining activity at 1 µM [10]	remaining activity at 10 µM [10]	IC50 at 48 h [11]	remaining activity at 1 µM [12]	remaining activity at 10 µM [12]	further results
CC(C)(C)OC(=O)N[C@H]1CC[C@@H](n2cc(COc3cccc4cnc(Nc5cccc(Cl)c5)nc34)nn2)CC1 [15a, tert-Butyl ((cis)-4-(4-(((2-((3-chlorophenyl)amino)quinazolin-8-yl)oxy)methyl)-1H-1,2,3-triazol-1-yl)cyclohexyl)carbamate]	64%	55%	92%	74%	> 25 µM	95%	63%	3 µM	≥ 100%	86%	≥ 100%	97%	98%	60%	> 25 µM	≥ 100%	97%	7 µM	≥ 100%	96%	remaining activity at 1 µM [13]: 86%; remaining activity at 10 µM [13]: 74%; IC50 at 48 h [14]: 23 µM; IC50 at 48 h [15, 16]: 7 µM; IC50 at 48 h [15, 17]: 18 µM
CC(C)(C)OC(=O)N[C@H]1CC[C@@H](n2cc(COc3cccc4cnc(Nc5cc(Cl)cc(Cl)c5)nc34)nn2)CC1 [15b, tert-Butyl ((cis)-4-(4-(((2-((3,5-dichlorophenyl)amino)quinazolin-8-yl)oxy)methyl)-1H-1,2,3-triazol-1-yl)cyclohexyl)carbamate]	92%	61%	89%	58%	21 µM	≥ 100%	74%	8 µM	93%	57%	≥ 100%	81%	96%	73%	> 25 µM	95%	≥ 100%	20 µM	≥ 100%	68%	remaining activity at 1 µM [13]: 75%; remaining activity at 10 µM [13]: 73%; IC50 at 48 h [14]: > 25 µM; IC50 at 48 h [15, 16]: > 25 µM; IC50 at 48 h [15, 17]: > 25 µM
N[C@H]1CC[C@@H](n2cc(COc3cccc4cnc(Nc5cccc(Cl)c5)nc34)nn2)CC1 [16a, 8-((1-((cis)-4-Aminocyclohexyl)-1H-1,2,3-triazol-4-yl)methoxy)-N-(3-chlorophenyl)quinazolin-2-amine hydrochloride]	68%	12%	72%	31%	9 µM	84%	36%	9 µM	32%	49%	87%	21%	17%	8%	9 µM	82%	33%	8 µM	75%	36%	IC50 ([4]; 10 µM ATP, duplicate): 2.76 µM; IC50 ([8]; mouse CLK1 orthologue, read-out: IC50 MmCLK1): 0.22 µM; remaining activity at 1 µM [13]: 54%; remaining activity at 10 µM [13]: 14%; IC50 at 48 h [14]: 8 µM; IC50 at 48 h [15, 16]: 10 µM; IC50 at 48 h [15, 17]: 9 µM
CC(C)(C)OC(=O)N[C@H]1CC[C@H](n2cc(COc3cccc4cnc(Nc5cccc(Cl)c5)nc34)nn2)CC1 [18a, tert-Butyl ((trans)-4-(4-(((2-((3-chlorophenyl)amino)quinazolin-8-yl)oxy)methyl)-1H-1,2,3-triazol-1-yl)cyclohexyl)carbamate]	92%	59%	77%	70%	16 µM	≥ 100%	66%	7 µM	88%	60%	≥ 100%	78%	93%	70%	> 25 µM	92%	≥ 100%	4 µM	69%	58%	remaining activity at 1 µM [13]: 77%; remaining activity at 10 µM [13]: 74%; IC50 at 48 h [14]: > 25 µM; IC50 at 48 h [15, 16]: 5 µM; IC50 at 48 h [15, 17]: 15 µM
